Patent publication US20190290656A1, “PT(IV) PRODRUGS” (YISSUM RESEARCH DEVELOPMENT COMPANY OF THE HEBREW …, priority 2015, published 2019)

Columns and labels:
PSN-1 cells = assay: Glycolysis (Mito-ID O2 sensor), PSN-1; assay type: cell-based, human; settings: IC50 concentrations, 24 h
Description: (§1) Glycolysis. The cellular glycolytic activity was assessed using the Mito-ID® O2 Extracellular Sensor Kit according to the manufacturer's instructions (Enzo Life Sciences, Farmingdale, N.Y.). Briefly, PSN-1 cells (15·10^3 per well) were seeded in 96-well plates. After 24 h, cells were treated with Mito-ID® O2 Sensor Probe Solution containing the tested compounds at the appropriate concentration. Fluorescence was estimated using a plate reader (Fluoroskan Ascent FL, Labsystem, Finland) at 350 nm (excitation) and 610 nm (emission).
(§2) Based on the above findings, we investigated the effects determined by derivatives 3a and 3b on 2008 and PSN-1 cancer cell aerobic glycolysis and mitochondria function.
(§3) However, these effects were magnified in PSN-1 cells, having reduction of cellular glycolytic activity of about 36 and 20% for 3a and 3b, respectively. […] This latter result could be explained tacking into consideration that the reference compound [Pt(DACH)(56Phen)] itself, that is also released upon reduction of 3a and 3b, is effective in hampering cellular glycolysis in both tested cancer cell lines. The difference between 3a and 3b might be attributed to the added effect of DCA.

2008 cells [1] = assay: Glycolysis (Mito-ID O2 sensor), 2008; assay type: cell-based, human; settings: IC50 concentrations, 24 h
Description: as §1, §2, §3

H157 cells = assay: MTT cytotoxicity assay, H157; assay type: cell-based, human; settings: H157, 72 h
Description: (§4) MTT assay. […] Triplicate cultures were established for each treatment.
(§5) The two dimers, 3a and 3b, as well as compounds 1a and 2a were screened against six human cancer cell lines representative of lung (H157), colon (HCT-15), cervical (A431), ovarian (2008) and pancreatic (PSN1) cancers, along with melanoma (A375). Cytotoxicity was evaluated by means of the MTT test after 72 h of treatment and the in vitro antitumor potential of newly synthesized derivatives was compared to that of the reference metallo-drugs CDDP and OXP.

HCT-15 spheroids = assay: 3D spheroid APH assay, HCT-15; assay type: cell-based, human; settings: HCT-15 spheroids, 72 h, APH test
Source text: (§6) Acid phosphatase (APH) assay. A modified APH assay, which is based on quantification of cytosolic acid phosphatase activity, was used for determining cell viability in spheroids. […] Triplicate cultures were established for each treatment. […] Evaluation was based on means from at least four independent experiments.
(§7) In order to improve the predictive capacity of the in vitro assays, we tested the activity in three three-dimensional (3D) cell cultures; human colon cancer cells, HCT-15, and human pancreatic cancer cells, KRAS wild type BxPC3 cells KRAS mutated PSN-1 cells. The cancer spheroids were treated with 3a and 3b for 72 h and the cell viability was assessed by means of the APH assay (Table 6). For comparison purposes, the cytotoxicities of CDDP and OXP were evaluated under the same experimental conditions.

A375 cells = assay: MTT cytotoxicity assay, A375; assay type: cell-based, human; settings: A375, 72 h, MTT (Table 5); read-out: IC50 (μM) ± S.D.
Description: (§8) Cisplatin (CDDP) and oxaliplatin (OXP) were dissolved just before the experiment in a 0.9% NaCl solution. […]
(§9) Cancer Res. 1988, 48, 589-601]. […] Triplicate cultures were established for each treatment.
as §4, §5

HCT-15 cells = assay: MTT cytotoxicity assay, HCT-15; assay type: cell-based, human; settings: HCT-15, 72 h, MTT (Table 5); read-out: IC50 (μM) ± S.D.
Description: as §8, §9, §4, §5

PSN-1 spheroids = assay: 3D spheroid APH assay, PSN-1; assay type: cell-based, human; settings: PSN-1 spheroids, 72 h, APH test
Source text: as §6, §7

[2] = tested on: Histone deacetylase (HDAC); assay: Histone deacetylase assay in 2008 cells; assay type: cell-based, human; settings: 24 h, IC50 concentrations
Description: (§10) Histone deacetylase assay. Histone deacetylase activity was determined using Fluor-de-Lys® HDAC fluorometric activity assay kit (Enzo Life Sciences International, Inc., Plymount Meeting, Pa., U.S.A.). 2008 and PSN1 cells (5.10^4 seeded in 96-well microplates) were treated for 24 h with tested complexes, and then processed as reported by the manufacturer's instructions. Fluorescence was measured using a Fluoroskan Ascent FL (Labsystem, Finland) plate reader, with excitation at 360 nm and emission at 460 nm.
(§11) Thus, we measured both the levels of DNA platination and the ability of these pro-drugs to inhibit HDAC activity in cancer cells.

[3] = tested on: human embryonic kidney HEK293 cells; assay: MTT cytotoxicity against non-tumor cells; assay type: cell-based
Description: as §4
The cytotoxic activity of derivatives 3a and 3b was also evaluated against non-tumor cells, namely human embryonic kidney HEK293 cells (Table 7). Both compounds 3a and 3b were more cytotoxic than CDDP.

2008 cells [4] = assay: MTT cytotoxicity assay, 2008; assay type: cell-based, human; settings: 2008, 72 h, MTT
Description: as §4, §5

BxPC3 spheroids = assay: 3D spheroid APH assay, BxPC3; assay type: cell-based, human; settings: 72 h, APH test
Source text: as §6, §7

A431 cells = assay: MTT cytotoxicity assay, A431; assay type: cell-based, human; settings: A431, 72 h
Description: as §4, §5

PSN1 cells = assay: MTT cytotoxicity assay, PSN1; assay type: cell-based, human; settings: PSN1, 72 h, MTT
Description: as §4, §5

[5] = tested on: Histone deacetylase (HDAC); assay: Histone deacetylase assay in PSN-1 cells; assay type: cell-based, human; settings: 24 h, IC50 concentrations
Description: as §10, §11

With “c,c,t,t,c,c-[(DACH)(56Phen)(OAc)Pt(μ-OOC—(CH2)2—CONH(CH2)3COO)-Pt(OAc)(NH3)2(Cl2)](TFA)2 [Compound 3b]” the “reduction of cellular glycolytic activity” value (PSN-1 cells) was roughly 20%, the “reduction of glycolysis processes compared with untreated control cells” value (2008 cells [1]) was roughly 14% and the IC50 (H157 cells) was 8.25 ± 1.21 µM. For the same substance, the IC50 (HCT-15 spheroids) was 75.9 ± 4.52 µM, the IC50 (A375 cells) was 1.05 ± 0.18 µM and the IC50 (HCT-15 cells) was 1.89 ± 0.69 µM. The IC50 (PSN-1 spheroids) was 60.5 ± 5.76 µM, the HDAC activity hampered [2] was “not effective in modifying HDAC activity” and the IC50 ([3]; HEK293 non-tumor cells, 72 h, MTT) was 7.8 ± 3.36 µM. The “SI (selectivity index)” value ([3]; ratio between average IC50 of non-tumor cells and IC50 of malignant cells) was 1.7, the IC50 (2008 cells [4]) was 6.04 µM and the IC50 (BxPC3 spheroids) was 81.3 ± 6.25 µM. For the same substance, the IC50 (A431 cells) was 5.25 ± 0.41 µM, the IC50 (PSN1 cells) was 6.12 µM and the HDAC activity hampered [5] was “not effective in modifying HDAC activity”.
